In patent US12503438B2, “Compounds for the treatment of kinase-dependent disorders” (Exelixis, Inc., priority 2019, dated 2025) one finds IC50 data, which are given here for 16 compounds.

For orientation: IC50 means the midpoint of a concentration-inhibition curve.

For one experiment, the target named is T1, AXL (Homo sapiens, UniProt P30530).
T1 construct: endogenous in cells; host or cells: A-172 glioblastoma cells (ATCC #CRL-1620)
T1 sequence (P30530 26-894): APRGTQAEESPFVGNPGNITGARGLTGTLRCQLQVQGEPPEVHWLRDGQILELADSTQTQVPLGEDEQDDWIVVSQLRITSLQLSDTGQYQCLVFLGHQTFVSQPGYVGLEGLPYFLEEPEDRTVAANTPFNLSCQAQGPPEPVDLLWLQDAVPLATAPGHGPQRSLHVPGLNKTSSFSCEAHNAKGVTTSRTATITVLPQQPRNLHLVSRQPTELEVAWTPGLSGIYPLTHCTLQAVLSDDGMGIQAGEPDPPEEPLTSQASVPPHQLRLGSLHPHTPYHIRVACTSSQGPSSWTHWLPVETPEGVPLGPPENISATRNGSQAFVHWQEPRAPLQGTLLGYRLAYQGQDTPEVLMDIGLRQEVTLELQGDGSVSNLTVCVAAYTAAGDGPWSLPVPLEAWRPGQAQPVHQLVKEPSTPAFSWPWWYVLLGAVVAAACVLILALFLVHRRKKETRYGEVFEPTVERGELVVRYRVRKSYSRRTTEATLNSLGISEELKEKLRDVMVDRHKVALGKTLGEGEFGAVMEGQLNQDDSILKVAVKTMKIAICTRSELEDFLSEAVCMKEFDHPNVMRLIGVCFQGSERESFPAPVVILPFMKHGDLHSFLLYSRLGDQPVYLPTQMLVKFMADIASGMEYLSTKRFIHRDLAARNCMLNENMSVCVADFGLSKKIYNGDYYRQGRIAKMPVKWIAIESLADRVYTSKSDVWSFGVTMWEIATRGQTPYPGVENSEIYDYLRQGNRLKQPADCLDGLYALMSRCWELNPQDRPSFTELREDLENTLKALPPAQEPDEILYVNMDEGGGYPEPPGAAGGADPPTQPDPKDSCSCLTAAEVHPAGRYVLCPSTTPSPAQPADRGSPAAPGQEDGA
Description: AXL autophosphorylation ELISA in A-172 cells. The format is cell-based. The following applies: cellular activity, Gas6-stimulated, phospho-AXL ELISA. As for the experimental part: A-172 glioblastoma cells (ATCC #CRL-1620) were seeded at 2.5×10^5 cells/well onto 24-well plates (Greiner #662165), in DMEM (Thermo Fisher #11995-040) containing 10% FBS (Thermo Fisher #26140-079), 1% MEM NEAA (Thermo Fisher #11140-050), 1% GlutaMax (Thermo Fisher #35050-061) and 1% Penicillin Streptomycin (Thermo Fisher #15140-122). A-172 cells were incubated at 37° C., 5% CO2 for 24 h and then starved for 24 h in serum-free medium. Test compounds were serially diluted to produce an 8-point dose curve in fresh serum-free medium to a final concentration of 0.3% DMSO (vehicle) and added to the cells and incubated for 1 h. Cells were then stimulated with 1 μg/mL recombinant human Gas6 (R&D Systems #885-GSB-500) for 15 min, washed with cold PBS and immediately lysed with 150 μL of cold 1× lysis buffer [20 mM Tris, 137 mM sodium chloride, 2 mM EDTA, 10% glycerol, 1% NP-40 alternative, 1 mM activated sodium orthovanadate, 1 mM PefaBloc SC (Sigma-Aldrich #11429868001), protease/phosphatase inhibitor tablet (Thermo Fisher #A32959)]. Lysates were collected and 100 μL/well added into the human phospho-AXL DuoSet IC ELISA (R&D Systems #DYC2228-2). Assay was performed according to manufacturer's instructions and sample phospho-AXL concentrations were extrapolated using human phospho-AXL control (R&D Systems #841645) as a standard. Positive control wells (100% activity) contained Gas6-stimulated, DMSO-treated cell lysates. Negative control wells (0% activity) contained Gas6-stimulated, reference inhibitor-treated cell lysates. IC50 values were calculated by nonlinear regression analysis using a 4-parameter logistic curve fit in ActivityBase XE (IDBS).
On the technique in general: An ELISA detects its analyte on a solid surface through an enzyme-linked reagent.

For another experiment, the target named is Met (Homo sapiens, UniProt P08581). Description: Met autophosphorylation ELISA in PC-3 cells. The settings on record: cellular activity, HGF-stimulated, phospho-Met ELISA, read-out: c-Met IC50. Also on record: endogenous in cells; host or cells: PC-3 prostate cancer cells (ATCC #CRL-1435). The format is cell-based. As to the method: PC-3 prostate cancer cells (ATCC #CRL-1435) were seeded at 4×10^4 cells/well onto 24-well plates (Greiner #662165), in DMEM (Thermo Fisher #11995-040) containing 10% FBS (Thermo Fisher #26140-079), 1% MEM NEAA (Thermo Fisher #11140-050), 1% GlutaMax (Thermo Fisher #35050-061), and 1% Penicillin Streptomycin (Thermo Fisher #15140-122). PC-3 cells were incubated at 37° C., 5% CO2 for 24 h and then starved for 3 h in serum-free medium. Test compounds were serially diluted to produce an 8-point dose curve in fresh serum-free medium to a final concentration of 0.3% DMSO (vehicle) and added to the cells and incubated for 1 h. Cells were then stimulated with 100 ng/mL recombinant human HGF (R&D Systems #294-HG-250) for 10 min, washed with cold PBS and immediately lysed with 130 μL of cold 1× lysis buffer [20 mM Tris, 137 mM sodium chloride, 2 mM EDTA, 10% glycerol, 1% NP-40 alternative, 1 mM activated sodium orthovanadate, 1 mM PefaBloc SC (Sigma-Aldrich #11429868001), protease/phosphatase inhibitor tablet (Thermo Fisher #A32959)]. Lysates were clarified by centrifugation and 100 μL/well added into the PathScan phospho-Met (panTyr) Sandwich ELISA (Cell Signaling Technology #7333). Assay was performed according to manufacturer's instructions. Positive control wells (100% activity) contained HGF-stimulated, DMSO-treated cell lysates. Negative control wells (0% activity) contained HGF-stimulated, reference inhibitor-treated cell lysates. IC50 values were calculated by nonlinear regression analysis using a 4-parameter logistic curve fit in ActivityBase XE (IDBS).
Met, sequence (P08581 25-1390): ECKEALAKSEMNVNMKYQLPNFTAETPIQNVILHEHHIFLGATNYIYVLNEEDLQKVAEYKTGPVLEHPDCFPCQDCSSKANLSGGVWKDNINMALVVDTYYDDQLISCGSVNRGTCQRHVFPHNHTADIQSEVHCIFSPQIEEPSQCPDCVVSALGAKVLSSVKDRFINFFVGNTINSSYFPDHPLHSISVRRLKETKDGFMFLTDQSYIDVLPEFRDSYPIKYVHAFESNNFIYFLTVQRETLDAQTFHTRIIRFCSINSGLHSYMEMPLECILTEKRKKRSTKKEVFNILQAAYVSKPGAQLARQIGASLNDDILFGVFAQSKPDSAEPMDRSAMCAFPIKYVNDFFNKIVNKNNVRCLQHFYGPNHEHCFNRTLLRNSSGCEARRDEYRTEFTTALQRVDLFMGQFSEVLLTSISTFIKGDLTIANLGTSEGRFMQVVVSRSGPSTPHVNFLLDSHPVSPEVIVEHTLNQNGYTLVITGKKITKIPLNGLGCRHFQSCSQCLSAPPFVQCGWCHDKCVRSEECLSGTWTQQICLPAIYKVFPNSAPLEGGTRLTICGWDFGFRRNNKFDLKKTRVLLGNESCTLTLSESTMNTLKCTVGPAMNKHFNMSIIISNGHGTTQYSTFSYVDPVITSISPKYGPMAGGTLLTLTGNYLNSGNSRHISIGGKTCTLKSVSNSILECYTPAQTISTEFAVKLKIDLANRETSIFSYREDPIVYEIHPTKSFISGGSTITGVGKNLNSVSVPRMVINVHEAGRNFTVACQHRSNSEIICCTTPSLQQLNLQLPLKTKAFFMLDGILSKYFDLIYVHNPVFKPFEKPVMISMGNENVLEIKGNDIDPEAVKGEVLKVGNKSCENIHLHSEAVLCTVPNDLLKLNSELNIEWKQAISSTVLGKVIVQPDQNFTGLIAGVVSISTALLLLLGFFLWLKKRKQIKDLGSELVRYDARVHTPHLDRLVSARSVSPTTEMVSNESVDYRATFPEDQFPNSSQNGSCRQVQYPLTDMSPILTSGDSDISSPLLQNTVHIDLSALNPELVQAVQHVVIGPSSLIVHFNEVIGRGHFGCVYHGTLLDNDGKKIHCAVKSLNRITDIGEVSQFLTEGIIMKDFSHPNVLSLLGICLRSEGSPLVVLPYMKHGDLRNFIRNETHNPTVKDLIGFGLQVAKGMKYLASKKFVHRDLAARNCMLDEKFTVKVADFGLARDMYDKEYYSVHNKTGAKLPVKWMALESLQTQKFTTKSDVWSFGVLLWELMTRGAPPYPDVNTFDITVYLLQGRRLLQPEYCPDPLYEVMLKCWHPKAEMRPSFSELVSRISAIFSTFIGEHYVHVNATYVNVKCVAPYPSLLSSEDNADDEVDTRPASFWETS

As for `Cn1ccc(-c2ccc3c(Oc4ccc(NC(=O)C5(C(=O)Nc6ccc(F)cc6)CC5)cc4)ccnc3c2)cc1=O` [Compound 117, 1-N′-(4-Fluorophenyl)-1-N-[4-[7-(1-methyl-2-oxopyridin-4-yl)quinolin-4-yl]oxyphenyl]cyclopropane-1,1-dicarboxamide], the IC50 on AXL was at most 10 nM; on Met, 10 to 100 nM.

For the compound `C#Cc1ccc2c(Oc3ccc(NC(=O)C4(C(=O)Nc5ccc(F)cc5)CC4)cc3)ccnc2c1` [Compound 64, 1-N-[4-(7-Ethynylquinolin-4-yl)oxyphenyl]-1-N′-(4-fluorophenyl)cyclopropane-1,1-dicarboxamide], the IC50 is over 300 nM on AXL and 100 to 300 nM at Met.

Consider `O=C(Nc1ccc(F)cc1)C1(C(=O)Nc2ccc(Oc3ccnc4cc(-c5cncs5)ccc34)cc2)CC1` [Compound 116, 1-N′-(4-Fluorophenyl)-1-N-[4-[7-(1,3-thiazol-5-yl)quinolin-4-yl]oxyphenyl]cyclopropane-1,1-dicarboxamide], for which the IC50 against AXL and on Met was 10 to 100 nM in each case.

On to `CC1Cc2cc(F)ccc2N1C(=O)C1(C(=O)Nc2ccc(Oc3ccnc4cc(-c5cnn(C)c5)ccc34)cc2)CC1` (centres unmarked) [Compound 80, 1-(5-Fluoro-2-methyl-2,3-dihydroindole-1-carbonyl)-N-[4-[7-(1-methylpyrazol-4-yl)quinolin-4-yl]oxyphenyl]cyclopropane-1-carboxamide], for which the results for the IC50 on AXL and on Met were 10 to 100 nM and 100 to 300 nM, respectively.

For the compound `Cn1cnc(-c2ccc3c(Oc4ccc(NC(=O)C5(C(=O)Nc6ccc(F)cc6)CC5)cc4)ccnc3c2)c1` [Compound 69, 1-N′-(4-Fluorophenyl)-1-N-[4-[7-(1-methylimidazol-4-yl)quinolin-4-yl]oxyphenyl]cyclopropane-1,1-dicarboxamide], the IC50 against AXL and at Met was at most 10 nM in each case.

For `O=C(Nc1ccc(F)cc1)C1(C(=O)Nc2ccc(Oc3ccnc4cc(-c5ccnnc5)ccc34)cc2)CC1` [Compound 28, 1-N′-(4-Fluorophenyl)-1-N-[4-(7-pyridazin-4-ylquinolin-4-yl)oxyphenyl]cyclopropane-1,1-dicarboxamide], the IC50 on AXL and at Met was at most 10 nM in each case.

Consider `O=C(Nc1ccc(F)cc1)C1(C(=O)Nc2ccc(Oc3ccnc4cc(-c5cnn(C(F)F)c5)ccc34)c(F)c2)CC1` [Compound 123, 1-N′-[4-[7-[1-(Difluoromethyl)pyrazol-4-yl]quinolin-4-yl]oxy-3-fluorophenyl]-1-N-(4-fluorophenyl)cyclopropane-1,1-dicarboxamide], for which the values for the IC50 at AXL and at Met were at most 10 nM and 10 to 100 nM, respectively.

With `O=C(Nc1ccc(F)cc1)C1(C(=O)Nc2ccc(Oc3ccnc4cc(-c5ncco5)ccc34)cc2)CC1` [Compound 66, 1-N′-(4-Fluorophenyl)-1-N-[4-[7-(1,3-oxazol-2-yl)quinolin-4-yl]oxyphenyl]cyclopropane-1,1-dicarboxamide], the IC50 against AXL and on Met was 10 to 100 nM each time.

On to `Cn1ccnc1-c1ccc2c(Oc3ccc(NC(=O)C4(C(=O)Nc5ccc(F)cc5)CC4)cc3)ccnc2c1` [Compound 75, 1-N′-(4-Fluorophenyl)-1-N-[4-[7-(1-methylimidazol-2-yl)quinolin-4-yl]oxyphenyl]cyclopropane-1,1-dicarboxamide], for which the IC50 at AXL and at Met was 10 to 100 nM in each case.

Turning to `Cc1cc2c(Oc3cc(Cl)c(NC(=O)C4(C(=O)Nc5ccc(F)cc5)CC4)cc3F)ccnc2cc1-c1cnn(C)c1` [Compound 112, 1-N′-[2-Chloro-5-fluoro-4-[6-methyl-7-(1-methylpyrazol-4-yl)quinolin-4-yl]oxyphenyl]-1-N-(4-fluorophenyl)cyclopropane-1,1-dicarboxamide], the IC50 at AXL and on Met was 10 to 100 nM in each case.

With `O=C(Nc1ccc(F)cc1)C1(C(=O)Nc2ccc(Oc3ccnc4cc(-c5cnn(C6COC6)c5)ccc34)cc2)CC1` [Compound 24, 1-N′-(4-Fluorophenyl)-1-N-[4-[7-[1-(oxetan-3-yl)pyrazol-4-yl]quinolin-4-yl]oxyphenyl]cyclopropane-1,1-dicarboxamide], the IC50 against AXL and on Met was at most 10 nM each time.

In the case of `O=C(Nc1ccc(F)cc1)C1(C(=O)Nc2ccc(Oc3ccnc4cc(-c5ccn(C(F)F)n5)ccc34)cc2)CC1` [Compound 84, 1-N-[4-[7-[1-(Difluoromethyl)pyrazol-3-yl]quinolin-4-yl]oxyphenyl]-1-N′-(4-fluorophenyl)cyclopropane-1,1-dicarboxamide], the IC50 at AXL and at Met was 10 to 100 nM in each case.

Turning to `COc1cc(-c2ccc3c(Oc4ccc(NC(=O)C5(C(=O)Nc6ccc(F)cc6)CC5)cc4)ccnc3c2)ccn1` [Compound 31, 1-N′-(4-Fluorophenyl)-1-N-[4-[7-(2-methoxypyridin-4-yl)quinolin-4-yl]oxyphenyl]cyclopropane-1,1-dicarboxamide], the IC50 against AXL and on Met was 10 to 100 nM each time.

Consider `O=C(Nc1ccc(F)cc1)C1(C(=O)Nc2ccc(Oc3ccnc4cc(-c5cnn(CCN6CCOCC6)c5)ccc34)cc2)CC1` [Compound 19, 1-N′-(4-Fluorophenyl)-1-N-[4-[7-[1-(2-morpholin-4-ylethyl)pyrazol-4-yl]quinolin-4-yl]oxyphenyl]cyclopropane-1,1-dicarboxamide], for which the IC50 at AXL was at most 10 nM; at Met, 10 to 100 nM.

`O=C(Nc1ccc(F)cc1)C1(C(=O)Nc2ccc(Oc3ccnc4cc(-c5cncnc5)ccc34)cc2)CC1` [Compound 27, 1-N′-(4-Fluorophenyl)-1-N-[4-(7-pyrimidin-5-ylquinolin-4-yl)oxyphenyl]cyclopropane-1,1-dicarboxamide]: the IC50 against AXL and on Met was 10 to 100 nM each time.

Consider `O=C(Nc1ccc(F)cc1)C1(C(=O)Nc2ccc(Oc3ccnc4cc(-c5cccnc5)ccc34)cc2)CC1` [Compound 25, 1-N′-(4-Fluorophenyl)-1-N-[4-(7-pyridin-3-ylquinolin-4-yl)oxyphenyl]cyclopropane-1,1-dicarboxamide], for which the IC50 against AXL and on Met was 10 to 100 nM in each case.
